Experimental findings from patent US10022440B2, “Materials and methods for modulating immune responses” (UNIVERSITY OF FLORIDA RESEARCH FOUNDATION, INCORPORATED, priority 2011, dated 2018) are described below.

One test has as its system splenocytes. In words: In vitro migration assay toward GM-CSF, splenocytes. The class given is cell-based, mouse. Particulars: for increase in cell migration: after 24 hrs, in the presence of GM-CSF, n=3 per group. The protocol: (§1) An in vitro migration assay was performed to evaluate the migratory capacity of splenocytes and bone marrow cells toward GM-CSF. NOD, non-obese resistant (NOR), and C57/BL6 (n=3 per group) mouse cells were used in this assay.

The subject of a further test is whole bone marrow cells. In words: In vitro migration assay toward GM-CSF, bone marrow cells. The class given is cell-based, mouse. Particulars: for increase in cell migration: after 24 hrs, in the presence of GM-CSF, n=3 per group. The protocol: as §1

For GM-CSF, the “increase in cell migration” value in the test with splenocytes (C57/BL6 splenocytes), in the test on splenocytes (NOR splenocytes), in the test on whole bone marrow cells (C57/BL6 whole bone marrow cells) and with whole bone marrow cells (NOR whole bone marrow cells) was 100% in each case. The “migration ratios with or without GM-CSF” value in the test on splenocytes (NOD splenocytes, p<0.05) is recorded as “no difference”. Moreover, the cell migration entry with whole bone marrow cells (NOD bone marrow cells, compared with NOR and C57/BL6 bone marrow cells) is reported as “migrated in a similar manner”.
